Values after ≈ are worked out from the molar mass of the structure shown. Active and inactive are the calls of the source. No cut-off for these calls is given here.
Assays:
Bacillus subtilis [1] = assay: Bactericidal activity against Bacillus subtilis MTCC 121 incubated for 24 hrs followed by transfer of microbial suspension to Mueller Hinton agar plates and measured after 24 hrs post transfer; format: functional; conditions: MTCC 121, 24 h
Bacillus subtilis [2] = assay: Antibacterial activity against Bacillus subtilis MTCC 121 after 24 hrs by well diffusion method; format: functional; conditions: MTCC 121, 24 h
Staphylococcus aureus [3] = assay: Antibacterial activity against Staphylococcus aureus MTCC 96 after 24 hrs by well diffusion method; format: functional; conditions: MTCC 96, 24 h
Staphylococcus aureus [4] = assay: Antibacterial activity against Staphylococcus aureus MLS16 MTCC 2940 after 24 hrs by well diffusion method; format: functional; conditions: MLS16 MTCC 2940, 24 h
Micrococcus luteus [5] = assay: Antibacterial activity against Micrococcus luteus MTCC 2470 after 24 hrs by well diffusion method; format: functional; conditions: MTCC 2470, 24 h
Raoultella planticola [6] = assay: Antibacterial activity against Klebsiella planticola MTCC 530 after 24 hrs by well diffusion method; format: functional; conditions: MTCC 530, 24 h
Escherichia coli [7] = assay: Antibacterial activity against Escherichia coli MTCC 739 after 24 hrs by well diffusion method; format: functional; conditions: MTCC 739, 24 h
Pseudomonas aeruginosa [8] = assay: Antibacterial activity against Pseudomonas aeruginosa MTCC 2453 after 24 hrs by well diffusion method; format: functional; conditions: MTCC 2453, 24 h
Staphylococcus aureus [9] = assay: Bactericidal activity against Staphylococcus aureus MTCC 96 incubated for 24 hrs followed by transfer of microbial suspension to Mueller Hinton agar plates and measured after 24 hrs post transfer; format: functional; conditions: MTCC 96, 24 h
Staphylococcus aureus [10] = assay: Bactericidal activity against Staphylococcus aureus MLS16 MTCC 2940 incubated for 24 hrs followed by transfer of microbial suspension to Mueller Hinton agar plates and measured after 24 hrs post transfer; format: functional; conditions: MLS16 MTCC 2940, 24 h
Micrococcus luteus [11] = assay: Bactericidal activity against Micrococcus luteus MTCC 2470 incubated for 24 hrs followed by transfer of microbial suspension to Mueller Hinton agar plates and measured after 24 hrs post transfer; format: functional; conditions: MTCC 2470, 24 h
Raoultella planticola [12] = assay: Bactericidal activity against Klebsiella planticola MTCC 530 incubated for 24 hrs followed by transfer of microbial suspension to Mueller Hinton agar plates and measured after 24 hrs post transfer; format: functional; conditions: MTCC 530, 24 h
Escherichia coli [13] = assay: Bactericidal activity against Escherichia coli MTCC 739 incubated for 24 hrs followed by transfer of microbial suspension to Mueller Hinton agar plates and measured after 24 hrs post transfer; format: functional; conditions: MTCC 739, 24 h
Pseudomonas aeruginosa [14] = assay: Bactericidal activity against Pseudomonas aeruginosa MTCC 2453 incubated for 24 hrs followed by transfer of microbial suspension to Mueller Hinton agar plates and measured after 24 hrs post transfer; format: functional; conditions: MTCC 2453, 24 h
Candida albicans [15] = assay: Antifungal activity against Candida albicans MTCC 183 after 24 hrs by well diffusion method; format: functional; conditions: MTCC 183, 24 h
Candida albicans [16] = assay: Antifungal activity against Candida albicans MTCC 227 after 24 hrs by well diffusion method; format: functional; conditions: MTCC 227, 24 h
Candida albicans [17] = assay: Antifungal activity against Candida albicans MTCC 854 after 24 hrs by well diffusion method; format: functional; conditions: MTCC 854, 24 h
Candida albicans [18] = assay: Antifungal activity against Candida albicans MTCC 1637 after 24 hrs by well diffusion method; format: functional; conditions: MTCC 1637, 24 h
Candida albicans [19] = assay: Antifungal activity against Candida albicans MTCC 3018 after 24 hrs by well diffusion method; format: functional
Candida albicans [20] = assay: Antifungal activity against Candida albicans MTCC 3017 after 24 hrs by well diffusion method; format: functional; conditions: MTCC 3017, 24 h
Candida albicans [21] = assay: Antifungal activity against Candida albicans MTCC 3958 after 24 hrs by well diffusion method; format: functional
Candida albicans [22] = assay: Antifungal activity against Candida albicans MTCC 4748 after 24 hrs by well diffusion method; format: functional
Candida albicans [23] = assay: Antifungal activity against Candida albicans MTCC 7315 after 24 hrs by well diffusion method; format: functional; conditions: MTCC 7315, 24 h
Candida parapsilosis [24] = assay: Antifungal activity against Candida parapsilosis MTCC 1744 after 24 hrs by well diffusion method; format: functional; conditions: MTCC 1744, 24 h
[Candida] aaseri [25] = Antifungal activity against Candida aaseri MTCC 1962 after 24 hrs by well diffusion method; format: functional; conditions: Yamadazyma aaseri, MTCC 1962, 24 h
Nakaseomyces glabratus [26] = assay: Antifungal activity against Candida glabrata MTCC 3019 after 24 hrs by well diffusion method; format: functional; conditions: MTCC 3019, 24 h
Pichia kudriavzevii [27] = assay: Antifungal activity against Candida krusei MTCC 3020 after 24 hrs by well diffusion method; format: functional
Pichia sporocuriosa [28] = assay: Antifungal activity against Issatchenkia hanoiensis MTCC 4755 after 24 hrs by well diffusion method; format: functional; conditions: MTCC 4755, 24 h
Candida albicans [29] = assay: Fungicidal activity against Candida albicans MTCC 183 incubated for 24 hrs followed by transfer of microbial suspension to Sabouraud dextrose agar plates and measured after 24 hrs post transfer; format: functional; conditions: MTCC 183, 24 h
Candida albicans [30] = assay: Fungicidal activity against Candida albicans MTCC 227 incubated for 24 hrs followed by transfer of microbial suspension to Sabouraud dextrose agar plates and measured after 24 hrs post transfer; format: functional; conditions: MTCC 227, 24 h
Candida albicans [31] = assay: Fungicidal activity against Candida albicans MTCC 854 incubated for 24 hrs followed by transfer of microbial suspension to Sabouraud dextrose agar plates and measured after 24 hrs post transfer; format: functional; conditions: MTCC 854, 24 h
Candida albicans [32] = assay: Fungicidal activity against Candida albicans MTCC 1637 incubated for 24 hrs followed by transfer of microbial suspension to Sabouraud dextrose agar plates and measured after 24 hrs post transfer; format: functional; conditions: MTCC 1637, 24 h
Candida albicans [33] = assay: Fungicidal activity against Candida albicans MTCC 3017 incubated for 24 hrs followed by transfer of microbial suspension to Sabouraud dextrose agar plates and measured after 24 hrs post transfer; format: functional; conditions: MTCC 3017, 24 h
Candida albicans [34] = assay: Fungicidal activity against Candida albicans MTCC 3018 incubated for 24 hrs followed by transfer of microbial suspension to Sabouraud dextrose agar plates and measured after 24 hrs post transfer; format: functional
Candida albicans [35] = assay: Fungicidal activity against Candida albicans MTCC 3958 incubated for 24 hrs followed by transfer of microbial suspension to Sabouraud dextrose agar plates and measured after 24 hrs post transfer; format: functional
Candida albicans [36] = assay: Fungicidal activity against Candida albicans MTCC 4748 incubated for 24 hrs followed by transfer of microbial suspension to Sabouraud dextrose agar plates and measured after 24 hrs post transfer; format: functional
Candida albicans [37] = assay: Fungicidal activity against Candida albicans MTCC 7315 incubated for 24 hrs followed by transfer of microbial suspension to Sabouraud dextrose agar plates and measured after 24 hrs post transfer; format: functional; conditions: MTCC 7315, 24 h
Candida parapsilosis [38] = assay: Fungicidal activity against Candida parapsilosis MTCC 1744 incubated for 24 hrs followed by transfer of microbial suspension to Sabouraud dextrose agar plates and measured after 24 hrs post transfer; format: functional; conditions: Lodderomyces parapsilosis, MTCC 1744, 24 h
[Candida] aaseri [39] = Fungicidal activity against Candida aaseri MTCC 1962 incubated for 24 hrs followed by transfer of microbial suspension to Sabouraud dextrose agar plates and measured after 24 hrs post transfer; format: functional; conditions: Yamadazyma aaseri, MTCC 1962, 24 h
Nakaseomyces glabratus [40] = assay: Fungicidal activity against Candida glabrata MTCC 3019 incubated for 24 hrs followed by transfer of microbial suspension to Sabouraud dextrose agar plates and measured after 24 hrs post transfer; format: functional; conditions: MTCC 3019, 24 h
Pichia kudriavzevii [41] = assay: Fungicidal activity against Candida krusei MTCC 3020 incubated for 24 hrs followed by transfer of microbial suspension to Sabouraud dextrose agar plates and measured after 24 hrs post transfer; format: functional
Pichia sporocuriosa [42] = assay: Fungicidal activity against Issatchenkia hanoiensis MTCC 4755 incubated for 24 hrs followed by transfer of microbial suspension to Sabouraud dextrose agar plates and measured after 24 hrs post transfer; format: functional; conditions: MTCC 4755, 24 h
Bacillus subtilis [43] = assay: Antibiofilm activity against Bacillus subtilis MTCC 121 after 24 hrs by crystal violet staining-based assay; format: functional, organism-based; conditions: Bacillus subtilis, MTCC 121, 24 h; read-out: IC50
Staphylococcus aureus [44] = assay: Antibiofilm activity against Staphylococcus aureus MTCC 96 after 24 hrs by crystal violet staining-based assay; format: functional, organism-based; conditions: Staphylococcus aureus, MTCC 96, 24 h; read-out: IC50
Staphylococcus aureus [45] = assay: Antibiofilm activity against Staphylococcus aureus MLS16 MTCC 2940 after 24 hrs by crystal violet staining-based assay; format: functional, organism-based; conditions: Staphylococcus aureus, MLS16 MTCC 2940, 24 h; read-out: IC50
Pseudomonas aeruginosa [46] = assay: Antibiofilm activity against Pseudomonas aeruginosa MTCC 2453 after 24 hrs by crystal violet staining-based assay; format: functional, organism-based; conditions: Pseudomonas aeruginosa, MTCC 2453, 24 h; read-out: IC50
Raoultella planticola [47] = assay: Antibiofilm activity against Klebsiella planticola MTCC 530 after 24 hrs by crystal violet staining-based assay; format: functional, organism-based; conditions: Klebsiella planticola, MTCC 530, 24 h; read-out: IC50

MIC (Bacillus subtilis [2]): 31.2 mg/L (≈ 61.5 µM)
MIC (Staphylococcus aureus [3]): 7.8 mg/L (≈ 15.4 µM)
MIC (Staphylococcus aureus [4]): 15.6 mg/L (≈ 30.7 µM)
MIC (Micrococcus luteus [5]): 15.6 mg/L (≈ 30.7 µM)
MIC (Escherichia coli [7]): 15.6 mg/L (≈ 30.7 µM)
MIC (Pseudomonas aeruginosa [8]): 15.6 mg/L (≈ 30.7 µM)
MIC (Candida albicans [15]): 3.9 mg/L (≈ 7.68 µM)
MIC (Candida albicans [16]): 7.8 mg/L (≈ 15.4 µM)
MIC (Candida albicans [17]): 7.8 mg/L (≈ 15.4 µM)
MIC (Candida albicans [18]): 15.6 mg/L (≈ 30.7 µM)
MIC (Candida albicans [19]): inactive
MIC (Candida albicans [20]): 3.9 mg/L (≈ 7.68 µM)
MIC (Candida albicans [21]): inactive
MIC (Candida albicans [22]): inactive
MIC (Candida albicans [23]): 62.5 mg/L (≈ 123 µM)
MIC (Candida parapsilosis [24]): 31.2 mg/L (≈ 61.5 µM)
MIC ([Candida] aaseri [25]): 31.2 mg/L (≈ 61.5 µM)
MIC (Nakaseomyces glabratus [26]): 15.6 mg/L (≈ 30.7 µM)
MIC (Pichia kudriavzevii [27]): inactive
MIC (Pichia sporocuriosa [28]): 15.6 mg/L (≈ 30.7 µM)
IC50 (Bacillus subtilis [43]): 21.6 mg/L (≈ 42.6 µM)
IC50 (Staphylococcus aureus [44]): 2.7 mg/L (≈ 5.32 µM)
IC50 (Staphylococcus aureus [45]): 10.8 mg/L (≈ 21.3 µM)
IC50 (Pseudomonas aeruginosa [46]): 10.8 mg/L (≈ 21.3 µM)
SMILES: O=C(c1nc(-c2ccccc2)c2c(C(F)(F)F)cc(-c3ccccc3)nc2n1)N1CCN(CCO)CC1
MBC (Bacillus subtilis [1]): 31.2 mg/L (≈ 61.5 µM)
MIC (Raoultella planticola [6]): 15.6 mg/L (≈ 30.7 µM)
MBC (Staphylococcus aureus [9]): 15.6 mg/L (≈ 30.7 µM)
MBC (Staphylococcus aureus [10]): 31.2 mg/L (≈ 61.5 µM)
MBC (Micrococcus luteus [11]): 31.2 mg/L (≈ 61.5 µM)
MBC (Raoultella planticola [12]): 31.2 mg/L (≈ 61.5 µM)
MBC (Escherichia coli [13]): 31.2 mg/L (≈ 61.5 µM)
MBC (Pseudomonas aeruginosa [14]): 31.2 mg/L (≈ 61.5 µM)
MFC (Candida albicans [29]): 7.8 mg/L (≈ 15.4 µM)
MFC (Candida albicans [30]): 15.6 mg/L (≈ 30.7 µM)
MFC (Candida albicans [31]): 15.6 mg/L (≈ 30.7 µM)
MFC (Candida albicans [32]): 31.2 mg/L (≈ 61.5 µM)
MFC (Candida albicans [33]): 7.8 mg/L (≈ 15.4 µM)
MFC (Candida albicans [34]): inactive
MFC (Candida albicans [35]): inactive
MFC (Candida albicans [36]): inactive
MFC (Candida albicans [37]): 62.5 mg/L (≈ 123 µM)
MFC (Candida parapsilosis [38]): 62.5 mg/L (≈ 123 µM)
MFC ([Candida] aaseri [39]): 62.5 mg/L (≈ 123 µM)
MFC (Nakaseomyces glabratus [40]): 31.2 mg/L (≈ 61.5 µM)
MFC (Pichia kudriavzevii [41]): inactive
MFC (Pichia sporocuriosa [42]): 31.2 mg/L (≈ 61.5 µM)
IC50 (Raoultella planticola [47]): 5.4 mg/L (≈ 10.6 µM)
